Literature values, collected in patent US7834031B2, “Radiolabeled glycine transporter inhibitors” (Merck Sharp & Dohme Corp., priority 2005, dated 2010).

What was measured:
pre-pulse inhibition = settings: mice; measure of sensory gating
NMDA receptor activity = settings: rat
[1] = system: symptoms of schizophrenia; settings: high doses, oral, add-on to standard neuroleptic therapy
[2] = system: symptoms of schizophrenia; settings: schizophrenia patients poorly responsive to antipsychotic drugs

Compound: CN(CCC(Oc1ccc(-c2ccccc2)cc1)c1ccc(F)cc1)CC(=O)O (stereo not shown) [NFPS, (N-[3-(4′-fluorophenyl)-3-(4′-phenylphenoxy)propyl])sarcosine]
- pre-pulse inhibition (pre-pulse inhibition): enhance pre-pulse inhibition
- NMDA receptor activity and NMDA receptor-dependent long-term potentiation (NMDA receptor activity): potentiates NMDA receptor activity and NMDA receptor-dependent long-term potentiation

Compound: NCC(=O)O [glycine]
- symptoms of schizophrenia patients [1]: improvement of the symptoms

Compound: CNCC(=O)O [sarcosine]
- effect on positive, negative and cognitive symptoms [2]: beneficial effect
